We go through two compounds from patent US6812222B1, “Biocompatible aqueous solution for use in continuous ambulatory peritoneal dialysis” (priority 1995, dated 2004).

Where two headings read alike, the source gives them in different places.

In data set [1] the test system is chemically induced inflammatory bowel reaction with bowel wall thickening or fibrosis. Put plainly: Colon fibrosis (weight of 8 cm of colon) after intrarectal TNB/ethanol in rats. Format: in vivo. As to conditions: for Colon fibrosis (as measured by weight of 8 cm of colon), mean ± SEM: rats. From the text: In animal models of inflammatory bowel disease the colon becomes fribrotic, as does the peritoneum as a result of chronic intraperitoneal dialysis. […] It is to be expected that in a similar manner NAG will prevent the development of fibrosis of the peritoneum in CAPD patients. [table]

The next data set concerns human mesothelial cells. Put plainly: Stimulation of hyaluronic acid in tissue culture of human mesothelial cells. Format: cell-based.
For a further data set, the system named is peritoneal membrane. Format: in vivo, rats. Conditions: for Hyaluronic Acid in Dialysate Fluid / Mass Transfer Area Coef for Urea / Peritoneal Clearance of Urea: 4 hours dwell; for Net Ultrafiltration: pH 7.35-7.4, 4 hours dwell, 20 mL infused. As to the method:
In experiments in which rats were dialyzed for 4 hours with Hanks Balances salt solution with either glucose or N-acetylglucosamine added at a concentration of 75 mM or 214 mM, at a pH of 7.35-7.4. The net utrafiltration was calculated as the difference between the drained volume of dialysate after 4 hours dwell time in the peritoneal cavity and the infused volume (20 mL) of the dialysis fluid. As well, the concentration of urea and creatinine in the blood and the dialysis fluid were measured. Permeability of the peritoneal membrane to urea and creatinine, expressed as the Mass Transfer Area Coefficient which was calculated according to the method of Krediet et al (Blood Purif 4: 194, 1986). […] In addition, the inclusion of NAG in the dialysate fluid stimulated the synthesis of hyaluronic acid, as shown by the more than 100% increase in amount of hyaluronic acid secreted in the dialysis fluid compared to the glucose treated rats.

The conditions of data set [2]: 7.5% solution; cited from earlier work.
Where [3] appears, read: versus glucose, rats dialyzed 4 hours.

On to `CC(=O)N[C@H]1C(O)O[C@H](CO)[C@@H](O)[C@@H]1O` (stereo partly shown) [NAG, N-acetylglucosamine], for which the “Colon fibrosis (as measured by weight of 8 cm of colon), mean ± SEM” value (“Colon fibrosis … mean ± SEM” for short) in data set [1] (25 mg NAG/kg BWt intrarectal 1 hr before TNB/EtOH) is listed as 1.669 ± 0.142 gm. Also, the “Colon fibrosis … mean ± SEM” value in data set [1] (50 mg NAG/kg BWt intrarectal 1 hr before TNB/EtOH) came to 1.339 ± 0.155 gm. Further, the “Colon fibrosis … mean ± SEM” value in data set [1] (100 mg NAG/kg BWt intrarectal 1 hr before TNB/EtOH) stood at 1.150 ± 0.068 gm. Also, in data set [1] (solution of NAG administered into the bowel of rats), the “Fibrotic reaction to the inflammatory stimulus” value is on record as “reduces in a dose dependent manner”. Also, the “Stimulation of hyaluronic acid” value with human mesothelial cells is recorded as “stimulation of hyaluronic acid by N-acetylglucosamine was confirmed”. In the data set with peritoneal membrane (75 mM in dialysis fluid), the “Hyaluronic Acid in Dialysate Fluid” value turned out to be 226 ± 93 µg/L, the “Mass Transfer Area Coef for Urea” value is 0.287 ± 0.13 mL/min, the “Peritoneal Clearance of Urea” value stood at 18.4 ± 2.1 mL/min and the “Net Ultrafiltration” value was −0.11 ± 1.6 mL/4 hrs. Also, in the data set on peritoneal membrane (214 mM in dialysis fluid), the “Hyaluronic Acid in Dialysate Fluid” value was determined as 217 µg/L, the “Mass Transfer Area Coef for Urea” value amounted to 0.262 ± 0.15 mL/min, the “Peritoneal Clearance of Urea” value turned out to be 30.0 mL/min and the “Net Ultrafiltration” value is given as 14.45 mL/4 hrs. The “Increase in amount of hyaluronic acid secreted in the dialysis fluid” value in the data set with peritoneal membrane (compared to the glucose treated rats) is “more than 100%”. The “Albumin or total protein loss into the dialysis fluid (in words)” value in the data set on peritoneal membrane (rat, in vivo) is listed as “without increasing”. Moreover, in the data set on peritoneal membrane (setting [3]), the “Net ultrafiltration (in words)” value was “statistically significant increase” and the “Peritoneal clearance of urea (in words)” value is “statistically significant increase”.

For Icodextrin, in data set [2], the Osmolality is reported as 282 mOsm/kg and the pH of solution is listed as 5.3.
